Laboratory results taken from ChEMBL document CHEMBL4421728, “Bach1 Inhibitors in Combination with Nrf2 Activators and Pharmaceutical Compositions Thereof” (2017).

Tests used:
[1] = molecular target: T1, Transcription regulator protein BACH1 (Homo sapiens) (UniProt O14867); assay: Inhibition of Bach1 in normal human lung fibroblasts assessed as induction of HMOX protein expression by measuring HMOX positive cells level at 0.039 uM in presence of 10 uM Nrf2 activator DMF incubated for 16 to 18 hrs by immunostaining relative to control DMSO; parameters: scale not given: the % may be the effect or the level left
T1 sequence (whole entry): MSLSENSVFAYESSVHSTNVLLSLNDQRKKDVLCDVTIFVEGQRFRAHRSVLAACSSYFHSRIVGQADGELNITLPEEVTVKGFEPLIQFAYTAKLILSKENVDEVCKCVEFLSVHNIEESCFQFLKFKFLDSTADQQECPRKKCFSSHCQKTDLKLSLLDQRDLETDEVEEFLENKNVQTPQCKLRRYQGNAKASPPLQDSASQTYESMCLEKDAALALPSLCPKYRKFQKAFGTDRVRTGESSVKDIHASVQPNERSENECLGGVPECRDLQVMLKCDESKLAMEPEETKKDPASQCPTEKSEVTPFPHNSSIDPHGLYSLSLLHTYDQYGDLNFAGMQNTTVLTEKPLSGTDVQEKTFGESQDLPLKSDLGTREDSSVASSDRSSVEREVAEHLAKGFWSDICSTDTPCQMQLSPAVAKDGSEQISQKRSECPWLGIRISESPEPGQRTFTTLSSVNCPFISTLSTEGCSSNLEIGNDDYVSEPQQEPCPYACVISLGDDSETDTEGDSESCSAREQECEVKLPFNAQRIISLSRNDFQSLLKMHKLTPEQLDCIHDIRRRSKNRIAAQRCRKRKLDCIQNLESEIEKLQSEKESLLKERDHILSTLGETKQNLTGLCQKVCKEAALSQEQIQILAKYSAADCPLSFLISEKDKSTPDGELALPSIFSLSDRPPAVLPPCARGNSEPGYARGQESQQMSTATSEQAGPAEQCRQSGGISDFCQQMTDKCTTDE

[2] = molecular target: T1, Transcription regulator protein BACH1 (Homo sapiens); assay: Inhibition of Bach1 in normal human lung fibroblasts assessed as induction of HMOX protein expression by measuring HMOX positive cells level at 0.019 uM in presence of 1 uM Nrf2 activator DMF incubated for 16 to 18 hrs by immunostaining relative to control DMSO; parameters: scale not given: the % may be the effect or the level left
[3] = molecular target: T1, Transcription regulator protein BACH1 (Homo sapiens); assay: Inhibition of Bach1 in normal human lung fibroblasts assessed as induction of HMOX protein expression at 0.019 uM in presence of 0.1 uM Nrf2 activator DMF incubated for 16 to 18 hrs by immunostaining relative to control
[4] = molecular target: T1, Transcription regulator protein BACH1 (Homo sapiens); assay: Inhibition of Bach1 in normal human lung fibroblasts assessed as induction of HMOX protein expression by measuring HMOX positive cells level at 0.156 uM in presence of 3 uM Nrf2 activator DMF incubated for 16 to 18 hrs by immunostaining relative to control DMSO; parameters: scale not given: the % may be the effect or the level left
[5] = molecular target: T1, Transcription regulator protein BACH1 (Homo sapiens); assay: Inhibition of Bach1 in normal human lung fibroblasts assessed as induction of HMOX protein expression at 0.312 uM incubated for 16 to 18 hrs in presence of 0.0024 uM Nrf2 activator Bardoxolone methyl by immunostaining relative to control
[6] = molecular target: T1, Transcription regulator protein BACH1 (Homo sapiens); assay: Inhibition of Bach1 in normal human lung fibroblasts assessed as induction of HMOX protein expression at 1.25 uM incubated for 16 to 18 hrs in presence of 0.156 uM Nrf2 activator Bardoxolone methyl by immunostaining relative to control
[7] = molecular target: T1, Transcription regulator protein BACH1 (Homo sapiens); assay: Inhibition of Bach1 in normal human lung fibroblasts assessed as induction of HMOX protein expression at 0.625 uM incubated for 16 to 18 hrs in presence of 0.0097 uM Nrf2 activator Bardoxolone methyl by immunostaining relative to control
[8] = molecular target: T1, Transcription regulator protein BACH1 (Homo sapiens); assay: Inhibition of Bach1 in normal human lung fibroblasts assessed as induction of HMOX protein expression at 0.156 uM incubated for 16 to 18 hrs in presence of 0.312 uM Nrf2 activator Bardoxolone methyl by immunostaining relative to control
[9] = molecular target: T1, Transcription regulator protein BACH1 (Homo sapiens); assay: Inhibition of Bach1 in normal human lung fibroblasts assessed as induction of HMOX protein expression at 2.5 uM incubated for 16 to 18 hrs in presence of 0.039 uM Nrf2 activator Bardoxolone methyl by immunostaining relative to control
[10] = molecular target: T1, Transcription regulator protein BACH1 (Homo sapiens); assay: Inhibition of Bach1 in normal human lung fibroblasts assessed as induction of HMOX protein expression at 0.019 uM incubated for 16 to 18 hrs in presence of 0.0097 uM Nrf2 activator Bardoxolone methyl by immunostaining relative to control
[11] = molecular target: T1, Transcription regulator protein BACH1 (Homo sapiens); assay: Inhibition of Bach1 in normal human lung fibroblasts assessed as induction of HMOX protein expression at 0.039 uM incubated for 16 to 18 hrs in presence of 0.156 uM Nrf2 activator Bardoxolone methyl by immunostaining relative to control
[12] = molecular target: T1, Transcription regulator protein BACH1 (Homo sapiens); assay: Inhibition of Bach1 in normal human lung fibroblasts assessed as induction of HMOX protein expression at 0.078 uM incubated for 16 to 18 hrs in presence of 0.019 uM Nrf2 activator Bardoxolone methyl by immunostaining relative to control
[13] = molecular target: T1, Transcription regulator protein BACH1 (Homo sapiens); assay: Inhibition of Bach1 in normal human lung fibroblasts assessed as induction of HMOX protein expression at 1.25 uM incubated for 16 to 18 hrs in presence of 0.0048 uM Nrf2 activator Bardoxolone methyl by immunostaining relative to control
[14] = molecular target: T1, Transcription regulator protein BACH1 (Homo sapiens); assay: Inhibition of Bach1 in normal human lung fibroblasts assessed as induction of HMOX protein expression at 1.25 uM incubated for 16 to 18 hrs by immunostaining relative to control
[15] = molecular target: T1, Transcription regulator protein BACH1 (Homo sapiens); assay: Inhibition of Bach1 in normal human lung fibroblasts assessed as induction of HMOX protein expression at 0.039 uM incubated for 16 to 18 hrs in presence of 0.039 uM Nrf2 activator Bardoxolone methyl by immunostaining relative to control
[16] = molecular target: T1, Transcription regulator protein BACH1 (Homo sapiens); assay: Inhibition of Bach1 in normal human lung fibroblasts assessed as induction of HMOX protein expression at 0.312 uM incubated for 16 to 18 hrs in presence of 0.156 uM Nrf2 activator Bardoxolone methyl by immunostaining relative to control
[17] = molecular target: T1, Transcription regulator protein BACH1 (Homo sapiens); assay: Inhibition of Bach1 in normal human lung fibroblasts assessed as induction of HMOX protein expression at 0.156 uM incubated for 16 to 18 hrs in presence of 0.0024 uM Nrf2 activator Bardoxolone methyl by immunostaining relative to control
[18] = molecular target: T1, Transcription regulator protein BACH1 (Homo sapiens); assay: Inhibition of Bach1 in normal human lung fibroblasts assessed as induction of HMOX protein expression at 0.078 uM incubated for 16 to 18 hrs in presence of 0.078 uM Nrf2 activator Bardoxolone methyl by immunostaining relative to control
[19] = molecular target: T1, Transcription regulator protein BACH1 (Homo sapiens); assay: Inhibition of Bach1 in normal human lung fibroblasts assessed as induction of HMOX protein expression at 0.019 uM incubated for 16 to 18 hrs in presence of 0.078 uM Nrf2 activator Bardoxolone methyl by immunostaining relative to control
[20] = molecular target: T1, Transcription regulator protein BACH1 (Homo sapiens); assay: Inhibition of Bach1 in normal human lung fibroblasts assessed as induction of HMOX protein expression at 0.625 uM incubated for 16 to 18 hrs in presence of 0.078 uM Nrf2 activator Bardoxolone methyl by immunostaining relative to control

Row | Activity [1] [%] | Activity [2] [%] | fold change (FC) [3] | Activity [4] [%] | fold change (FC) [5] | fold change (FC) [6] | fold change (FC) [7] | fold change (FC) [8] | fold change (FC) [9] | fold change (FC) [10] | fold change (FC) [11] | fold change (FC) [12] | fold change (FC) [13] | fold change (FC) [14] | fold change (FC) [15] | fold change (FC) [16] | fold change (FC) [17] | fold change (FC) [18] | fold change (FC) [19] | fold change (FC) [20] | Compound
1 | 94.7 | 10.2 | 1.15 | 89 | – | – | – | – | – | – | – | – | – | – | – | – | – | – | – | – | CN(C)C(=O)CNC(=O)c1ccc2c(c1)nc(Nc1nc3ccc(C(F)(F)F)cc3s1)n2C
2 | 99.2 | 26.4 | 1.23 | 99.2 | – | – | – | – | – | – | – | – | – | – | – | – | – | – | – | – | Cn1c(Nc2nc3ccc(C(F)(F)F)cc3s2)nc2cc(C(=O)NCCOCCO)ccc21
3 | 92 | 7.52 | 1.13 | 79.6 | – | – | – | – | – | – | – | – | – | – | – | – | – | – | – | – | COCCNC(=O)c1cnc2c(c1)nc(Nc1nc3ccc(OC(F)(F)F)cc3s1)n2C
4 | – | – | – | – | 11.7 | 16.6 | 17.2 | 16 | 14.7 | 7.14 | 17.2 | 13.2 | 17.3 | 16.2 | 14.7 | 19.2 | 7.32 | 19.5 | 22.3 | 18.6 | CNC(=O)c1ccc2c(c1)nc(Nc1nc3ccc(OC(F)(F)F)cc3s1)n2C
